Assay results reported in US20030104507A1, “Method for detection of ATP” (priority 2001, published 2003).

Test system: Jurkat cells
Test: Effect of NaF on Jurkat cell luminescence
Assay type: cell-based
Source text: In some cells, such as lymphoid cells (e.g., Jurkat), an increase in luminescence over time in the presence of the reagent composition solution is observed. While the underlying mechanism of this increase in luminescence is not known, it is postulated that it results from the functioning of ATP-generating enzymes in this cell. The activity of such enzymes, if left unchecked, will result in an over-estimation of ATP in a sample at the time of the assay. This experiment was designed to test the effects of sodium fluoride on luminescence when using lymphoid cells.
Jurkat cells (ATCC, CRL-1990) were grown in 5% CO2/95% air, 100% humidity at 37° C. and maintained in RPMI media (Sigma, R-8005) containing 10% FBS (Hyclone #SH30070), 1X non-essential amino acids (Hyclone SH30238) and 1 mM sodium pyruvate (Hyclone #SH30239). Cells were plated at 0, 12500, 25000, and 50000 cells/well in 100 μl of media in a 96-well microtiter luminometer plate. Quadruplicate replicates were prepared. To each of these wells was added reagent composition (reagent composition=40 mM Citrate buffer (pH 6.0), 110 mM MES buffer (pH 6.0), 0.2 mM EDTA, 0.2% Gelatin, 100 μg/ml Luciferase (LucPpe2m146, diluted from 37.8 mg/ml stock solution), 100 μM luciferin, 300 mM NaCl, 20 mM MgSO4, 0.05% Mazu DF-204, 0.6% DTAB). In addition, all but the “no KPO4” control sample contained 60 mM KPO4 buffer (pH 6.0). Various concentrations of NaF were then added to the above solution to final concentrations of 0, 1.0, 2.0, 4.0, 10.0 mM; one condition had 10.0 mM NaF but without KPO4.
Total reaction volume per well was 200 μl, consisting of 100 μl cells plus media and 100 μl reagent composition containing KPO4 and/or NaF. The light output was taken at various times on a Dynex microtiter plate luminometer at a 0.5 second read time. The resulting average rlus from quadruplicate wells and calculated signal stabilities as measured by their half-life values are reported in Table S.

SMILES: [F-].[Na+] [NaF, sodium fluoride]
- Average rlu (1.0 mM NaF, 12500 cells/well, 0 min): 358.61 rlu
- Average rlu (1.0 mM NaF, 12500 cells/well, 30 min): 341.31 rlu
- Average rlu (1.0 mM NaF, 12500 cells/well, 85 min): 331.08 rlu
- Average rlu (1.0 mM NaF, 12500 cells/well, 130 min): 323.54 rlu
- Average rlu (1.0 mM NaF, 12500 cells/well, 220 min): 271.89 rlu
- Average rlu (1.0 mM NaF, 12500 cells/well, 255 min): 257.06 rlu
- Average rlu (1.0 mM NaF, 12500 cells/well, 285 min): 247.61 rlu
- Average rlu (1.0 mM NaF, 25000 cells/well, 0 min): 691.68 rlu
- Average rlu (1.0 mM NaF, 25000 cells/well, 30 min): 640.53 rlu
- Average rlu (1.0 mM NaF, 25000 cells/well, 85 min): 611.45 rlu
- Average rlu (1.0 mM NaF, 25000 cells/well, 130 min): 596.87 rlu
- Average rlu (1.0 mM NaF, 25000 cells/well, 220 min): 495.89 rlu
- Average rlu (1.0 mM NaF, 25000 cells/well, 255 min): 463.32 rlu
- Average rlu (1.0 mM NaF, 25000 cells/well, 285 min): 446.32 rlu
- Average rlu (1.0 mM NaF, 50000 cells/well, 0 min): 1380.16 rlu
- Average rlu (1.0 mM NaF, 50000 cells/well, 30 min): 1268.49 rlu
- Average rlu (1.0 mM NaF, 50000 cells/well, 85 min): 1185.73 rlu
- Average rlu (1.0 mM NaF, 50000 cells/well, 130 min): 1147.33 rlu
- Average rlu (1.0 mM NaF, 50000 cells/well, 220 min): 936.82 rlu
- Average rlu (1.0 mM NaF, 50000 cells/well, 255 min): 862.31 rlu
- Average rlu (1.0 mM NaF, 50000 cells/well, 285 min): 832.15 rlu
- Average rlu (2.0 mM NaF, 12500 cells/well, 0 min): 348.16 rlu
- Average rlu (2.0 mM NaF, 12500 cells/well, 30 min): 333.48 rlu
- Average rlu (2.0 mM NaF, 12500 cells/well, 85 min): 323.75 rlu
- Average rlu (2.0 mM NaF, 12500 cells/well, 130 min): 317.48 rlu
- Average rlu (2.0 mM NaF, 12500 cells/well, 220 min): 258.43 rlu
- Average rlu (2.0 mM NaF, 12500 cells/well, 255 min): 251.90 rlu
- Average rlu (2.0 mM NaF, 12500 cells/well, 285 min): 239.40 rlu
- Average rlu (2.0 mM NaF, 25000 cells/well, 0 min): 679.02 rlu
- Average rlu (2.0 mM NaF, 25000 cells/well, 30 min): 631.69 rlu
- Average rlu (2.0 mM NaF, 25000 cells/well, 85 min): 603.07 rlu
- Average rlu (2.0 mM NaF, 25000 cells/well, 130 min): 589.08 rlu
- Average rlu (2.0 mM NaF, 25000 cells/well, 220 min): 472.37 rlu
- Average rlu (2.0 mM NaF, 25000 cells/well, 255 min): 455.25 rlu
- Average rlu (2.0 mM NaF, 25000 cells/well, 285 min): 433.54 rlu
- Average rlu (2.0 mM NaF, 50000 cells/well, 0 min): 1340.22 rlu
- Average rlu (2.0 mM NaF, 50000 cells/well, 30 min): 1239.83 rlu
- Average rlu (2.0 mM NaF, 50000 cells/well, 85 min): 1156.03 rlu
- Average rlu (2.0 mM NaF, 50000 cells/well, 130 min): 1111.04 rlu
- Average rlu (2.0 mM NaF, 50000 cells/well, 220 min): 873.26 rlu
- Average rlu (2.0 mM NaF, 50000 cells/well, 255 min): 829.87 rlu
- Average rlu (2.0 mM NaF, 50000 cells/well, 285 min): 781.80 rlu
- Average rlu (4.0 mM NaF, 12500 cells/well, 0 min): 367.69 rlu
- Average rlu (4.0 mM NaF, 12500 cells/well, 30 min): 346.05 rlu
- Average rlu (4.0 mM NaF, 12500 cells/well, 85 min): 335.27 rlu
- Average rlu (4.0 mM NaF, 12500 cells/well, 130 min): 331.07 rlu
- Average rlu (4.0 mM NaF, 12500 cells/well, 220 min): 275.13 rlu
- Average rlu (4.0 mM NaF, 12500 cells/well, 255 min): 259.58 rlu
- Average rlu (4.0 mM NaF, 12500 cells/well, 285 min): 251.79 rlu
- Average rlu (4.0 mM NaF, 25000 cells/well, 0 min): 691.41 rlu
- Average rlu (4.0 mM NaF, 25000 cells/well, 30 min): 634.08 rlu
- Average rlu (4.0 mM NaF, 25000 cells/well, 85 min): 604.37 rlu
- Average rlu (4.0 mM NaF, 25000 cells/well, 130 min): 587.41 rlu
- Average rlu (4.0 mM NaF, 25000 cells/well, 220 min): 476.36 rlu
- Average rlu (4.0 mM NaF, 25000 cells/well, 255 min): 453.66 rlu
- Average rlu (4.0 mM NaF, 25000 cells/well, 285 min): 436.38 rlu
- Average rlu (4.0 mM NaF, 50000 cells/well, 0 min): 1378.13 rlu
- Average rlu (4.0 mM NaF, 50000 cells/well, 30 min): 1277.41 rlu
- Average rlu (4.0 mM NaF, 50000 cells/well, 85 min): 1195.56 rlu
- Average rlu (4.0 mM NaF, 50000 cells/well, 130 min): 1139.99 rlu
- Average rlu (4.0 mM NaF, 50000 cells/well, 220 min): 883.49 rlu
- Average rlu (4.0 mM NaF, 50000 cells/well, 255 min): 853.43 rlu
- Average rlu (4.0 mM NaF, 50000 cells/well, 285 min): 813.31 rlu
- Average rlu (10.0 mM NaF, 12500 cells/well, 0 min): 364.79 rlu
- Average rlu (10.0 mM NaF, 12500 cells/well, 30 min): 343.44 rlu
- Average rlu (10.0 mM NaF, 12500 cells/well, 85 min): 331.48 rlu
- Average rlu (10.0 mM NaF, 12500 cells/well, 130 min): 326.32 rlu
- Average rlu (10.0 mM NaF, 12500 cells/well, 220 min): 271.64 rlu
- Average rlu (10.0 mM NaF, 12500 cells/well, 255 min): 256.88 rlu
- Average rlu (10.0 mM NaF, 12500 cells/well, 285 min): 248.30 rlu
- Average rlu (10.0 mM NaF, 25000 cells/well, 0 min): 753.29 rlu
- Average rlu (10.0 mM NaF, 25000 cells/well, 30 min): 677.94 rlu
- Average rlu (10.0 mM NaF, 25000 cells/well, 85 min): 635.67 rlu
- Average rlu (10.0 mM NaF, 25000 cells/well, 130 min): 617.77 rlu
- Average rlu (10.0 mM NaF, 25000 cells/well, 220 min): 496.08 rlu
- Average rlu (10.0 mM NaF, 25000 cells/well, 255 min): 471.66 rlu
- Average rlu (10.0 mM NaF, 25000 cells/well, 285 min): 450.76 rlu
- Average rlu (10.0 mM NaF, 50000 cells/well, 0 min): 1442.08 rlu
- Average rlu (10.0 mM NaF, 50000 cells/well, 30 min): 1324.67 rlu
- Average rlu (10.0 mM NaF, 50000 cells/well, 85 min): 1235.80 rlu
- Average rlu (10.0 mM NaF, 50000 cells/well, 130 min): 1181.84 rlu
- Average rlu (10.0 mM NaF, 50000 cells/well, 220 min): 903.44 rlu
- Average rlu (10.0 mM NaF, 50000 cells/well, 255 min): 870.95 rlu
- Average rlu (10.0 mM NaF, 50000 cells/well, 285 min): 826.48 rlu
- Average rlu (10.0 mM NaF, without KPO4, 12500 cells/well, 0 min): 409.57 rlu
- Average rlu (10.0 mM NaF, without KPO4, 12500 cells/well, 30 min): 400.10 rlu
- Average rlu (10.0 mM NaF, without KPO4, 12500 cells/well, 85 min): 384.84 rlu
- Average rlu (10.0 mM NaF, without KPO4, 12500 cells/well, 130 min): 371.42 rlu
- Average rlu (10.0 mM NaF, without KPO4, 12500 cells/well, 220 min): 294.12 rlu
- Average rlu (10.0 mM NaF, without KPO4, 12500 cells/well, 255 min): 283.01 rlu
- Average rlu (10.0 mM NaF, without KPO4, 12500 cells/well, 285 min): 267.78 rlu
- Average rlu (10.0 mM NaF, without KPO4, 25000 cells/well, 0 min): 806.87 rlu
- Average rlu (10.0 mM NaF, without KPO4, 25000 cells/well, 30 min): 785.16 rlu
- Average rlu (10.0 mM NaF, without KPO4, 25000 cells/well, 85 min): 734.44 rlu
- Average rlu (10.0 mM NaF, without KPO4, 25000 cells/well, 130 min): 692.57 rlu
- Average rlu (10.0 mM NaF, without KPO4, 25000 cells/well, 220 min): 516.69 rlu
- Average rlu (10.0 mM NaF, without KPO4, 25000 cells/well, 255 min): 498.99 rlu
- Average rlu (10.0 mM NaF, without KPO4, 25000 cells/well, 285 min): 468.90 rlu
- Average rlu (10.0 mM NaF, without KPO4, 50000 cells/well, 0 min): 1514.80 rlu
- Average rlu (10.0 mM NaF, without KPO4, 50000 cells/well, 30 min): 1449.30 rlu
- effect on the luminescence increase seen with Jurkat cells (NaF added to reagent composition): can inhibit the luminescence increase
